From publication PMC4310727 (Journal of enzyme inhibition and medicinal chemistry, 2012)

Molecular target: T1, Glutaredoxin-1 (GRX-1) (Homo sapiens, UniProt P35754)
T1 sequence (P35754 2-106): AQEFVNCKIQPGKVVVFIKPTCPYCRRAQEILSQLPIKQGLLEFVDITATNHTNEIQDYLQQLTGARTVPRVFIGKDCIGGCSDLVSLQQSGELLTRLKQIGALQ
Experiment: time-dependent inactivation kinetics
Assay type: biochemical
Details: read-out: Ki

CC(=O)N[C@@H](CSC(=S)Nc1ccc(NC(=S)SC[C@H](NC(C)=O)C(=O)O)cc1)C(=O)O [2-AAPA, 2-acetylamino-3-[4-(2-acetylamino-2-carboxyethyl-sulfanylthiocarbonylamino)phenylthiocarbamoylsulfanyl]propionic acid] showed a KI (inactivation) of 91.3 µM.
